Test results from patent US9624170B2, “4-(piperrazin-1-yl)-pyrrolidin-2-one compounds as monoacylglycerol lipase (MAGL) inhibitors” (TAKEDA PHARMACEUTICAL COMPANY LIMITED, priority 2013, dated 2017).

Legend:
human MAGL (His-hMAGL) [1] = target: T1, human MAGL (His-hMAGL) (Homo sapiens, UniProt Q99685); experiment: Measurement of MAGL inhibitory activity by mass spectrometry; assay type: biochemical; conditions: 10 μM test compound; substrate 2-arachidonylglycerol, arachidonic acid by RapidFire-mass spectrometry
T1 construct: made in house; host or cells: Escherichia coli BL21(DE3)
T1 sequence (Q99685 1-303): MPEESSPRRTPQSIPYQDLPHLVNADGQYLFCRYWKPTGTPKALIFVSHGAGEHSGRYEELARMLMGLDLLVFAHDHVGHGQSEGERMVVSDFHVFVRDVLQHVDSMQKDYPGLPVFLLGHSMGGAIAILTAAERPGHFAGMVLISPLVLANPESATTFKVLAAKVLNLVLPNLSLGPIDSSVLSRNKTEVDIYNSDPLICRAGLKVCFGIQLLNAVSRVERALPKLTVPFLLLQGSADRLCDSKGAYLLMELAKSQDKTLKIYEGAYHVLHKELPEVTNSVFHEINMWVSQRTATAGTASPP
Summary of the method: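 His-tagged human MAGL was reacted with 150 μM 2-arachidonylglycerol substrate (stock, added by 5 μL) for 10 min at room temperature, then stopped with formic acid. Arachidonic acid product was quantified by RapidFire–triple-quadrupole MS in negative SRM mode, corrected by arachidonic acid-d8, and converted to percent inhibition.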

human MAGL (His-hMAGL) [2] = target: T1, human MAGL (His-hMAGL); experiment: Measurement of MAGL inhibitory activity by absorbance; assay type: biochemical; conditions: 10 μM test compound; substrate p-nitrophenyl acetate, absorbance at 405 nm
Description: (1) Cloning of Human MGLL Encoding MAGL Protein and Construction of Expression Plasmid
Human MGLL cDNA was obtained by PCR using human ORF Clone (DNAForm; Clone ID: 100004585) as a template. For PCR, two kinds of primers: […]
The obtained PCR product was digested with Bam HI and Not I (Takara Bio Inc.), inserted into the Bam HI/Not I site of pET21HH(V) (pET21a (Novagen) inserted with His x6 and TEV Protease recognition sequence) by using Ligation High (Toyobo Co., Ltd.), and introduced into ECOS™ JM109 (Nippon Gene Co., Ltd.), whereby expression plasmid pET21HH(V)/His-hMGLLv2 for Escherichia coli was constructed. (2) Preparation of Recombinant Polyhistidine Tagged Human MAGL Protein
Recombinant His-hMAGL protein was prepared by transforming ECOS™ Competent E. coli BL21(DE3) (Nippon Gene Co., Ltd.) with the pET21HH(V)/His-hMGLLv2 plasmid prepared above. Escherichia coli obtained by transformation was inoculated to 10 mL of LB medium (1% peptone, 0.5% yeast extract, 0.5% sodium chloride, 0.01% ampicillin), and cultured at 30° C. for 16 hr. […] When the turbidity of the culture medium reached about 500 Klett unit, the culture temperature was lowered to 16° C., isopropyl-β-D-thiogalactopyranoside (IPTG) was added to a final concentration of 1 mM, and the mixture was further cultured for 19 hr. After the completion of culture, the culture medium was centrifuged (4° C., 6,000 rpm, 10 min) to give His-hMAGL expression Escherichia coli. Then, His-hMAGL expression Escherichia coli was suspended in 50 mM Tris-HCl (pH 8.0, 100 ml) containing 1% Triton X-100, 20 mM imidazole, 3 mM DTT, 5 U/mL Benzonase (Merck) and 150 mM NaCl, sufficiently cooled, and subjected to sonication at […]=60%, 15 sec/ON, 30 sec/OFF for 3 min using ¾″ solid type crushed horn of BRANSON Digital Sonifier 450 (Central Scientific Commerce, Inc.). Furthermore, the homogenate was centrifuged (4° C., 15,000 rpm, 15 min) and the supernatant was obtained. As the purification apparatus, AKTA explorer 10s (GE Healthcare Japan Corporation) was used at 4° C. To the obtained supernatant was added 5M NaCl to the final salt concentration of 0.3 M, and the mixture was flown through and adsorbed to 5 mL of Ni-NTA Superflow Cartridges (QIAGEN) equilibrated in advance with buffer A (50 mM Tris-HCl (pH 8.0) containing 0.05% TritonX-100, 1 mM DTT, 300 mM NaCl). The column was sufficiently washed with buffer A containing 20 mM imidazole and His-hMAGL was eluted with buffer A containing imidazole at a final concentration of 250 mM. The eluate was further subjected to gel filtration using HiLoad 26/600 Superdex 200 pg (GE Healthcare Japan Corporation) equilibrated with 50 mM Tris-HCl pH 8.0 containing 10% glycerol, 0.05% TritonX-100, 1 mM DTT, 150 mM NaCl. The eluted fraction was concentrated by Amicon Ultra-15 10K (Merck Millipore) to give purified His-hMAGL protein. The protein concentration was measured by BCA Protein Assay Kit (Thermo Fisher Scientific) using BSA as the standard.
(3) Measurement of MAGL Inhibitory Activity
His-hMAGL obtained above was diluted with enzyme reaction buffer (10 mM Tris-HCl, pH 7.5, 1 mM EDTA, 0.1 (w/v) % Triton X-100) to a concentration of 60 ng/mL. […] Thereafter, to each well was added 750 μM p-nitrophenyl acetate (Wako Pure Chemical Industries, Ltd.) by 5 μL, and the absorbance at 405 nm was measured every 2 minutes up to 10 minutes by EnVision (PerkinElmer). The amount of change was obtained by subtracting the absorbance measured immediately after the start of the reaction from the absorbance measured 10 min after the start of the reaction.
MAGL inhibitory rate (%) was calculated according to the following calculation formula. (1−(absorbance change amount of test compound addition group−absorbance change amount of enzyme addition-free group)[…](absorbance change amount of test compound addition-free group−absorbance change amount of enzyme addition-free group))×100

[3] = tested on: Gfap, IL-1β, IL-6 gene expression in hippocampus; experiment: Measurement of gene expression in hippocampus of kainic acid intraventricular administration rat; assay type: in vivo; conditions: SD rats, 30 mg/kg by gavage, hippocampus 24 hr after administration

| Structure (SMILES) | inhibition at 10 µM (human MAGL (His-hMAGL) [2]) [%] | other results |
| --- | --- | --- |
| O=C(c1nccs1)N1CCN([C@@H]2CC(=O)N(c3ccc4c(ccn4-c4ncc(C(F)(F)F)cn4)c3)C2)CC1 [Example 80, (4R)-4-(4-(1,3-Thiazol-2-ylcarbonyl)piperazin-1-yl)-1-(1-(5-(trifluoromethyl)pyrimidin-2-yl)-1H-indol-5-yl)pyrrolidin-2-one] | 100 | inhibition at 10 µM (human MAGL (His-hMAGL) [1]): 97% |
| O=C(c1nccs1)N1CCN(C2CC(=O)N(c3ccc4c(cnn4-c4ccc(F)cc4)c3)C2)CC1 (centres unmarked) [Example 85, 1-(1-(4-Fluorophenyl)-1H-indazol-5-yl)-4-(4-(1,3-thiazol-2-ylcarbonyl)piperazin-1-yl)pyrrolidin-2-one] | 99 |  |
| O=C(c1nccs1)N1CCN(C2CC(=O)N(c3ccc4c(cnn4-c4ccc(Cl)cn4)c3)C2)CC1 (centres unmarked) [Example 86, 1-(1-(5-chloropyridin-2-yl)-1H-indazol-5-yl)-4-(4-(1,3-thiazol-2-ylcarbonyl)piperazin-1-yl)pyrrolidin-2-one] | 99 |  |
| O=C(c1nccs1)N1CCN(C2CC(=O)N(c3ccc4c(ccn4-c4ccc(Cl)cn4)c3)C2)CC1 (centres unmarked) [Example 87, 1-(1-(5-chloropyridin-2-yl)-1H-indol-5-yl)-4-(4-(1,3-thiazol-2-ylcarbonyl)piperazin-1-yl)pyrrolidin-2-one] | 98 |  |
| O=C(c1nccs1)N1CCN([C@@H]2CC(=O)N(c3ccc4c(ccn4-c4ncc(C(F)(F)F)cn4)c3)C2)CC1 [compound 1, (4R)-4-(4-(1,3-thiazol-2-ylcarbonyl)piperazin-1-yl)-1-(1-(5-(trifluoromethyl)pyrimidin-2-yl)-1H-indol-5-yl)pyrrolidin-2-one] |  | effect to decrease expression of a gene of glial fibrillary acidic protein (GFAP) (FIG. 3) [3]: decrease expression; effect to decrease expression of a gene of interleukin 1β (IL-1β) (FIG. 4) [3]: decrease expression; effect to decrease expression of a gene of interleukin 6 (IL-6) (FIG. 5) [3]: decrease expression |
